Laboratory results: patent US9115345B2, “MicroRNA induction of pluripotential stem cells and uses thereof” (The Trustees Of The University Of Pennsylvania, priority 2010, dated 2015)
“Also recorded” adds a separate entry of the source.

Tests used:
Hdac2-/- MEFs = assay: miR302/367 reprogramming of Hdac2-/- MEFs; assay type: cell-based, mouse; settings: Hdac2-/- MEFs transduced with miR302/367
Experimental: (§1) Mouse fibroblasts were isolated from Oct4-GFP, Rosa26-LacZ and Hdac2^flax/flax embryos at E13.5 and cultured in fibroblast medium as described (Takahashi et al., 2007). Hdac2 was excised by infection of Hdac2^flax/flax MEFs with adeno-cre virus. Human dermal fibroblast were cultured in DMEM/F12, 15% FBS, penicillin/streptomycin and L-glutamine. Viral particles were generated by transfection of plated 293T cells with pLOVE vectors encoding miR302/367, Oct4, Sox2, Klf4, or N-myc along with pMD.G and psPAX2 vectors as described (Blelloch et al., 2007). Supernatant from the transfected cells were collected every 24 hr for 48 hrs and titered. The titered viral suspension was mixed with 0.5 μl (0.1 of 10 μg/mL polybrene (American Bioanalytical, MA) per milliliter of viral suspension and used to infect fibroblasts. After viral infection, mouse fibroblast were cultured in mouse ES medium supplemented with or without valproic acid at a final concentration of 2 mM for the indicated length of time. Infected human fibroblast were culture in human ES medium as described (Huangfu et al., 2008a; Takahashi et al., 2007).
The Hdac2p^flox/flox allele was generated by flanking exon 2 with loxP recombination sites using the targeting vector depicted in FIG. 19A. […]

MEFs = assay: CellTiter proliferation assay for MEFs; assay type: cell-based, mouse; settings: wild-type and Hdac2-/- MEFs
Experimental: Proliferation assays for MEFs were performed using the CellTiter 96 Aqueous One Solution Cell Proliferation kit (Promega, Inc.). 20 μl of CellTiter Reagent, which functions by being incorporated by viable cells into a colorimetric product that can be measured at 490 nm, was added to 100 μL of culture medium, incubated at 37° C. […] absorbance was measured at 490 nm at 1.5 hours, 2.5 hours, and 4.5 hours.

Hdac1 = assay: Western blot for Hdac1 in MEFs; assay type: cell-based, mouse; settings: MEFs during miR302/367 reprogramming
Experimental: (§2) Total cell lysates were prepared for Western blotting as previously described (Trivedi et al., 2008). Equal amounts of protein were resolved by SDS-PAGE and transferred to polyvinylidenedifluoride membranes. Membranes were incubated with Hdac1 antibody (1:1000 dilution, Cell Signaling), Hdac2 antibody (1:1000 dilution, Invitrogen) or Hdac3 antibody (1:1000 dilution, Sigma). Primary antibody binding was visualized by HRP-conjugated secondary antibody and detected by enhanced chemiluminescence (LumiGlo, Cell Signaling). For loading control, membranes were reprobed with primary antibody against GAPDH (1:2500 dilution, Abeam).

Hdac2 = assay: Western blot for Hdac2 in MEFs; assay type: cell-based, mouse; settings: MEFs during miR302/367 reprogramming
Experimental: as §2

[1] = tested on: human foreskin and dermal fibroblasts; assay: Reprogramming of human fibroblasts: colonies with human ES like morphology; assay type: cell-based
Experimental: as §1

Hdac3 = assay: Western blot for Hdac3 in MEFs; assay type: cell-based, mouse; settings: MEFs during miR302/367 reprogramming
Experimental: as §2

Oct4-GFP MEFs = assay: iPS reprogramming of Oct4-GFP MEFs: clones with ES like morphology and Oct4-GFP positive clones; assay type: cell-based, mouse; settings: day 10 of reprogramming; culture up to three weeks
Experimental: as §1

| Compound | effect of VPA addition on number of iPS cell clones (Hdac2-/- MEFs) | proliferation rates in MEFs (MEFs) | Hdac1 protein expression level (Hdac1) | Hdac2 protein level (Hdac2) | requirement for and effect of VPA on reprogramming human fibroblasts by miR302/367 [1] | Hdac3 protein expression level (Hdac3) | iPS cell colony generation in MEFs (Oct4-GFP MEFs) |
| --- | --- | --- | --- | --- | --- | --- | --- |
| CCCC(CCC)C(=O)O [VPA, valproic acid] | did not change the number of iPS cell clones | did not affect proliferation rates | unchanged | caused degradation of Hdac2 protein | not required; also recorded: did not affect the efficiency of reprogramming | unchanged |  |
| miR367: miR367 expressed alone; sequence AAUUGCACUUUAGCAAUGGUGA (SEQ ID NO: 8) (listed as Homo sapiens) |  |  |  |  |  |  | did not reprogram fibroblasts |
